Consider 23 compounds from PubChem BioAssay AID1259408 (Genetic Toxicology Data Bank (GENE-TOX), 2018).

In this series the test system is GENE-TOX genotoxicity assays, various organisms and cells. The experiment in a line: GENE-TOX mutagenicity studies. Particulars: for call: Assay Type: In vivo carcinogenicity studies.
Where [1] appears, read: Species/Cell Type: Bacillus subtilis (H17 vs M45), Assay Type: Rec-assay, spot test, DNA effects (bacterial DNA repair), Assay Code: REW+, Evaluation Type: Evaluation A (Pre-1980).
[2] abbreviates: Species/Cell Type: Chinese hamster lung (V79) cells, Assay Type: Forward gene mutation at the HPRT or ouabain locus, Assay Code: V79+, Evaluation Type: Evaluation A (Pre-1980).
[3] abbreviates: Species/Cell Type: Drosophila melanogaster, Assay Type: Sex-linked recessive lethal gene mutation, Assay Code: SRL+, Evaluation Type: Evaluation A (Pre-1980).
Where [4] appears, read: Species/Cell Type: Human diploid fibroblasts, Assay Type: Unscheduled DNA synthesis (UDS) in vitro, DNA effects, Assay Code: UDH-, Evaluation Type: Evaluation A (Pre-1980).
The mark [5] stands for this setting: Species/Cell Type: Human lymphocytes, Assay Type: Sister-chromatid exchange (SCE) in vitro, Assay Code: SCL+, Evaluation Type: Evaluation B (Post-1980).
Where [6] appears, read: Species/Cell Type: Nonhuman, Assay Code: CCG+L, Evaluation Type: Evaluation A (Pre-1980).
The mark [7] stands for this setting: Species/Cell Type: Nonhuman, Assay Type: Sister-chromatid exchange (SCE) in vitro, Assay Code: SC2+D, Dose Response: With dose response, Evaluation Type: Evaluation B (Post-1980).
Setting [8] is: Species/Cell Type: Saccharomyces cerevisiae, Assay Type: Mitotic recombination or gene conversion, Assay Code: YEC+, Evaluation Type: Evaluation A (Pre-1980).
[9] abbreviates: Species/Cell Type: Salmonella typhimurium (one or more of the five standard strains: TA98, TA100, TA1535, TA1537, and TA1538), Assay Type: Histidine reverse gene mutation, Ames assay, Assay Code: SAL+, Evaluation Type: Evaluation A (Pre-1980).
[10] abbreviates: Species/Cell Type: Salmonella typhimurium (one or more of the five standard strains: TA98, TA100, TA1535, TA1537, and TA1538), Assay Type: Histidine reverse gene mutation, Ames assay, Assay Code: SALT, Evaluation Type: Evaluation A (Pre-1980).
Where [11] appears, read: Species/Cell Type: Salmonella typhimurium (one or more of the five standard strains: TA98, TA100, TA1535, TA1537, and TA1538), Assay Type: Histidine reverse gene mutation, Ames assay, Assay Code: SAL+*, Activation: With metabolic activation, Evaluation Type: Evaluation A (Pre-1980).
Where [12] appears, read: Species/Cell Type: Human, Assay Type: Sister-chromatid exchange (SCE) in vitro, Assay Code: SC1+D, Dose Response: With dose response, Evaluation Type: Evaluation B (Post-1980).

The source made the active and inactive calls. How the calls were made is not given here.

As for `O=C1[C@H]2CC=CC[C@H]2C(=O)N1SC(Cl)(Cl)Cl`, the mutagenic call runs as follows: (Species/Cell Type: Aspergillus nidulans, Assay Type: Aneuploidy, chromosome aberrations, Assay Code: ASN-, Evaluation Type: Evaluation A (Pre-1980)) “inactive; negative”; (Species/Cell Type: Aspergillus nidulans, Assay Type: Mitotic recombination, Assay Code: ASG+, Evaluation Type: Evaluation A (Pre-1980)) “active; positive”; under setting [1], “active; positive”; under setting [2], “active; positive”; (Species/Cell Type: Chinese hamster ovary (CHO) cells, Assay Type: Forward gene mutation at the HPRT locus, Assay Code: CHO+, Evaluation Type: Evaluation B (Post-1980)) “active; positive”; under setting [3], “active; positive”. Further, the mutagenic call by setting is: (Species/Cell Type: Drosophila melanogaster, Sex: Male, Assay Type: Heritable translocation test, chromosome aberrations, Assay Code: DHTT, Evaluation Type: Evaluation A (Pre-1980)) “no conclusion”; (Species/Cell Type: Escherichia coli WP2, Assay Type: Tryptophan reverse gene mutation, Assay Code: WP2+, Evaluation Type: Evaluation A (Pre-1980)) “active; positive”; (Species/Cell Type: Escherichia coli WP2 UVRA, Assay Type: Tryptophan reverse gene mutation, Assay Code: WPU+/-*, Activation: With metabolic activation, Evaluation Type: Evaluation A (Pre-1980)) “inactive; positive without activation, negative with activation”; (Species/Cell Type: Escherichia coli polA (W3119 vs P3478), Assay Type: Rec-assay, DNA effects (bacterial DNA repair), Assay Code: RE1+, Evaluation Type: Evaluation A (Pre-1980)) “active; positive”; under setting [4], “inactive; negative”; under setting [5], “active; positive”. Besides, the mutagenic call by setting is: (Species/Cell Type: Human, Assay Type: Sister-chromatid exchange (SCE) in vitro, Assay Code: SC1+, Evaluation Type: Evaluation B (Post-1980)) “active; positive”; (Species/Cell Type: Mammalian polychromatic erythrocytes, Assay Type: Micronucleus test, chromosome aberrations, Assay Code: MNT+, Evaluation Type: Evaluation B (Post-1980)) “active; positive”; (Species/Cell Type: Mouse, Sex: Male, Assay Type: Heritable translocation test, chromosome aberrations, Assay Code: HTT-, Evaluation Type: Evaluation A (Pre-1980)) “inactive; negative”; under setting [7], “active; positive”; (Species/Cell Type: Rodents, Sex: Male, Assay Type: Dominant lethal test, Assay Code: DLT+, Evaluation Type: Evaluation A (Pre-1980)) “active; positive”; under setting [8], “active; positive”. Also, the mutagenic call is “active; positive” (Species/Cell Type: Saccharomyces cerevisiae, Assay Type: Mitotic recombination or gene conversion, Assay Code: YEH+, Evaluation Type: Evaluation A (Pre-1980)); “active; positive” under setting [9]; “active; positive” (Species/Cell Type: Salmonella typhimurium, Serratia marcesens, Assay Type: Forward and reverse gene mutation, host-mediated assay, Assay Code: HM2+, Evaluation Type: Evaluation A (Pre-1980)); “inactive; negative” (Species/Cell Type: Salmonella typhimurium, Assay Type: Forward and reverse gene mutation, body fluid assay, Assay Code: BFU-, Evaluation Type: Evaluation A (Pre-1980)). Also, under setting [6], the call was “active; positive”.

For the compound `COc1ccc(-c2c(-c3ccc(OC)cc3)c3ccc(OC)cc3c3cc(OC)ccc23)cc1`, under setting [10], the mutagenic call is given as “no conclusion”.

Turning to `Cc1ccc2nc3ccccc3cc2c1`, the mutagenic call (Species/Cell Type: Saccharomyces cerevisiae, Assay Type: Forward gene mutation, Assay Code: YEFT, Evaluation Type: Evaluation A (Pre-1980)) is reported as “no conclusion”.

On to `Cc1c(F)c2ccccc2c2ccc3ccccc3c12`, for which the mutagenic call under setting [10] is listed as “no conclusion”.

Turning to `OCCCCO`, where the note is “Species/Cell Type: Drosophila melanogaster, Assay Type: Sex-linked recessive lethal gene mutation, Assay Code: SRLT, Evaluation Type: Evaluation A (Pre-1980)”, the mutagenic call is recorded as “no conclusion”.

`O=NN1CCC(c2ccccc2)CC1`: under setting [11], the mutagenic call is “active; positive”.

On to `O=[N+]([O-])[O-].O=[N+]([O-])[O-].[Mn+2]`, for which, under setting [1], the mutagenic call was “active; positive”.

Regarding `Cc1ccc(N)cc1Cl`, where the note is “Species/Cell Type: Nonhuman, Assay Code: CCG-, Evaluation Type: Evaluation A (Pre-1980)”, the call was “inactive; negative”.

`O=C(O)c1ccc([N+](=O)[O-])o1`: the mutagenic call (Species/Cell Type: Bacillus subtilis (H17 vs M45T), Assay Type: Rec-assay, spot test, DNA effects (bacterial DNA repair), Assay Code: REX-, Evaluation Type: Evaluation A (Pre-1980)) was “inactive; negative”; the mutagenic call (Species/Cell Type: Escherichia coli WP2, Assay Type: Tryptophan reverse gene mutation, Assay Code: WP2-, Evaluation Type: Evaluation A (Pre-1980)) was “inactive; negative”; the mutagenic call (Species/Cell Type: Escherichia coli WP2 UVRA, Assay Type: Tryptophan reverse gene mutation, Assay Code: WPU-, Evaluation Type: Evaluation A (Pre-1980)) is “inactive; negative”; the mutagenic call under setting [9] is “active; positive”.

For the compound `Cc1cc(N=Nc2ccc(S(=O)(=O)O)cc2)c(N)cc1N`, the mutagenic call under setting [11] is “active; positive”.

On to `NC(Cc1ccc(N(CCCl)CCCl)cc1)C(=O)O` (stereo not drawn), for which, under setting [3], the mutagenic call is “active; positive”. Moreover, where the note is “Species/Cell Type: Nonhuman, Assay Code: CCG+, Evaluation Type: Evaluation A (Pre-1980)”, the call was “active; positive”.

Consider `COc1ccc(/C=N/NC(=O)c2ccncc2)c(C(=O)O)c1OC`, for which the mutagenic call (Species/Cell Type: Salmonella typhimurium, Assay Type: Forward and reverse gene mutation, host-mediated assay, Assay Code: HMA-, Evaluation Type: Evaluation A (Pre-1980)) was “inactive; negative”.

Consider `O=C[C@H](NC(=O)N(CCCl)N=O)[C@@H](O)[C@H](O)[C@H](O)CO`, for which the mutagenic call runs as follows: under setting [2], “active; positive”; under setting [3], “active; positive”; under setting [7], “active; positive”; under setting [8], “active; positive”. Further, the call under setting [6] was “active; positive”.

As to `CC(=O)N(O)c1ccc(-c2ccccc2)cc1`, the mutagenic call (Species/Cell Type: Human diploid fibroblasts, Assay Type: Unscheduled DNA synthesis (UDS) in vitro, DNA effects, Assay Code: UDH+, Evaluation Type: Evaluation A (Pre-1980)) was “active; positive” and the mutagenic call (Species/Cell Type: Nonhuman, Assay Type: Sister-chromatid exchange (SCE) in vitro, Assay Code: SC2+, Evaluation Type: Evaluation B (Post-1980)) is “active; positive”.

Take `CNC(=O)O/N=C(\C)SC`: the mutagenic call is “no conclusion” (Species/Cell Type: Bacillus subtilis (H17 vs M45), Assay Type: Rec-assay, spot test, DNA effects (bacterial DNA repair), Assay Code: REWT, Evaluation Type: Evaluation A (Pre-1980)); “inactive; negative” (Species/Cell Type: Drosophila melanogaster, Assay Type: Sex-linked recessive lethal gene mutation, Assay Code: SRL-, Evaluation Type: Evaluation A (Pre-1980)); “inactive; negative” (Species/Cell Type: Escherichia coli WP2 UVRA, Assay Type: Tryptophan reverse gene mutation, Assay Code: WPU-*, Activation: With metabolic activation, Evaluation Type: Evaluation A (Pre-1980)); “no conclusion” (Species/Cell Type: Escherichia coli polA (W3119 vs P3478), Assay Type: Rec-assay, DNA effects (bacterial DNA repair), Assay Code: RE1T, Evaluation Type: Evaluation A (Pre-1980)); “inactive; negative” under setting [4]; “inactive; negative” (Species/Cell Type: Saccharomyces cerevisiae, Assay Type: Mitotic recombination or gene conversion, Assay Code: YEH-, Evaluation Type: Evaluation A (Pre-1980)). For the same compound, the mutagenic call under setting [10] was “no conclusion”.

As to `CCC1(c2ccc(O)cc2)OC1(CC)c1ccc(O)cc1` (stereo not drawn), under setting [12], the mutagenic call was “active; positive”.

In the case of `Nc1ccc(N)c(N)c1`, the mutagenic call was “inactive; negative” (Species/Cell Type: Mouse, Sex: Male, Assay Type: Sperm morphology, Assay Code: SPI-, Evaluation Type: Evaluation A (Pre-1980)) and “no conclusion” under setting [10].

As to `C=Cc1cn([C@H]2C[C@H](O)[C@@H](CO)O2)c(=O)[nH]c1=O`, the mutagenic call runs as follows: under setting [5], “active; positive”; under setting [12], “active; positive”.

As to `Cc1ccc(F)c2ccc3c4ccccc4ccc3c12`, the mutagenic call under setting [10] was “no conclusion”.

On to `CS(=O)(=O)OCCCOS(C)(=O)=O`, for which the mutagenic call was “active; positive” under setting [3] and “active; positive” (Species/Cell Type: Rat, Sex: Male, Assay Type: Sperm morphology, Assay Code: SPA+, Evaluation Type: Evaluation A (Pre-1980)).

Regarding `CN(CCCCO)N=O`, the mutagenic call under setting [10] is reported as “no conclusion”.

As for `CC(C(=O)O)c1cccc(C(=O)c2ccccc2)c1` (stereo not drawn), the mutagenic call (Species/Cell Type: Human lymphocytes, Assay Type: Sister-chromatid exchange (SCE) in vivo, Assay Code: SCY+, Evaluation Type: Evaluation B (Post-1980)) was “active; positive”.

In the case of `NCCCN1CC1`, the mutagenic call (Species/Cell Type: Schizosaccharomyces pombe, Assay Type: Reverse gene mutation, Assay Code: YEZ+, Evaluation Type: Evaluation A (Pre-1980)) was “active; positive”.
